Laboratory results taken from patent EP4631962A1, “PEPTIDE FOR CARTILAGE REGENERATION, AND USES THEREOF” (Caregen Co., Ltd., priority 2022, dated 2024).
Where a SMILES comes first, the peptide text is derived from it. Where no end group is shown, it is not given here.

Assays:
[1] = tested on: human-derived chondrocyte cells (C28/I2, human chondrocyte cell line); test: CCK-8 assay, cytotoxicity in chondrocytes; assay type: cell-based; conditions: different concentrations, after 3 days, FIG. 1 and FIG. 2
Procedure: (§1) The cytotoxicity of Peptide-1 or Peptide-2 upon addition to human-derived chondrocyte cells (C28/I2, human chondrocyte cell line) and human adipose-derived mesenchymal stem cells (AD-MSC) was analyzed using a CCK-8 assay.
Specifically, human-derived chondrocytes were seeded in a 96-well plate at a density of 3 × 10^3 cells/well and cultured in DMEM medium (cat. 11995-065, Gibco) for 24 hours.

[2] = tested on: human adipose-derived mesenchymal stem cells (AD-MSC); test: CCK-8 assay, cytotoxicity in AD-MSC; assay type: cell-based; conditions: different concentrations, after 7 days, FIG. 3
Procedure: as §1

Compound	toxicity (CCK-8 activity) [1]	toxicity (CCK-8 activity) [2]
N[C@@H](CCC(=O)O)C(=O)N[C@@H](CC(=O)O)C(=O)N[C@@H](CC(=O)O)C(=O)O [Peptide-2, EDD] (H-Glu-Asp-Asp-OH)	did not exhibit toxicity	–
KRRRKRK [Peptide-1, KRRRKRK]	did not exhibit toxicity	did not exhibit toxicity
